Patent US11807907B2, “Method for diagnosing and treating subjects having single nucleotide polymorphisms in chromosome 2, 2:107,510,000-107,540,000 locus” (NEURIM PHARMACEUTICALS (1991) LTD., priority 2021, dated 2023)
Marks after values point to notes of the source that are not given here.

Experiments:
5-HT-2a receptor = 5-HT-2a receptor (Homo sapiens, UniProt P28223); experiment: 5-HT receptor binding, 5-HT-2a; details: read-out: IC50 (concentration causing 50% inhibition of binding)
5-HT-7 receptor = 5-HT-7 receptor (Homo sapiens, UniProt P34969); experiment: 5-HT receptor binding, 5-HT-7; details: read-out: IC50 (concentration causing 50% inhibition of binding)
5-HT-7 receptor, sequence (P34969 whole entry): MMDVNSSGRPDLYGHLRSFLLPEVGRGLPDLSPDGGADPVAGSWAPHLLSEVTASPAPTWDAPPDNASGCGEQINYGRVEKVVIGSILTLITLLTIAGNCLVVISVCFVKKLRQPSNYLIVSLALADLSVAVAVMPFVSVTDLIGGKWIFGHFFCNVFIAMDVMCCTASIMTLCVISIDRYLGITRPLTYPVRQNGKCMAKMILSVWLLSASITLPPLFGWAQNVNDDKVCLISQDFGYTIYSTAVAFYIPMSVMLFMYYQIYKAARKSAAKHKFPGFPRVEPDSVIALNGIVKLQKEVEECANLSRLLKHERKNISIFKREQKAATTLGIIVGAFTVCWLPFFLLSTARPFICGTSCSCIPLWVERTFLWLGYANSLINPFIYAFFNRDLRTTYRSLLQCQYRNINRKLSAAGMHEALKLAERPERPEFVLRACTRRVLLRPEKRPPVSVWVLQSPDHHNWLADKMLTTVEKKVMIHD

5-HT1b = 5-HT1b (Homo sapiens, UniProt P28222); experiment: Functional assay (cellular dielectric spectroscopy, impedance), 5-HT1b; assay type: cell-based
5-HT1b, sequence (P28222 whole entry, species assumed): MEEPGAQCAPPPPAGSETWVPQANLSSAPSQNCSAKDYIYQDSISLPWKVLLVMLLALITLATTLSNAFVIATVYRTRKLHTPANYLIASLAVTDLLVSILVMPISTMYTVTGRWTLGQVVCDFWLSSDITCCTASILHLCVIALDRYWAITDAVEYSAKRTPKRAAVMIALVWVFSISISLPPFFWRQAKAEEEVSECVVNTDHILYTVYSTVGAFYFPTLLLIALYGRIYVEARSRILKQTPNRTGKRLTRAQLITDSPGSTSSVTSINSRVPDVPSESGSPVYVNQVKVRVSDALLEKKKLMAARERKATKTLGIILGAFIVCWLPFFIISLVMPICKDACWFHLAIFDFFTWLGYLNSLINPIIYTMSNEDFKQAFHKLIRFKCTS
Text: (§1) For the functional assay, Homogeneous Time Resolved Fluorescence (HTRF) was used to measure cAMP or IP1 as products of the functional agonist or antagonist binding of 5-HT1a, 2a,2b, 2c, 4e, 6, 7 to their respective ligand (8-OG-DPAT or serotonin). Cellular dielectric spectroscopy was used to measure impedance as the product of the functional agonist or antagonist binding of 5HT1b and determine their respective ligand (serotonin).

5-HT-1d receptor = target: T1, 5-HT-1d receptor (Rattus norvegicus, UniProt P28565); experiment: 5-HT receptor radioligand binding assay, 5-HT-1d; details: CHO cells, 3H serotonin, read-out: IC50 (concentration causing 50% inhibition of binding)
T1 construct: expressed in transfected cells; host or cells: CHO
T1 sequence (P28565 whole entry): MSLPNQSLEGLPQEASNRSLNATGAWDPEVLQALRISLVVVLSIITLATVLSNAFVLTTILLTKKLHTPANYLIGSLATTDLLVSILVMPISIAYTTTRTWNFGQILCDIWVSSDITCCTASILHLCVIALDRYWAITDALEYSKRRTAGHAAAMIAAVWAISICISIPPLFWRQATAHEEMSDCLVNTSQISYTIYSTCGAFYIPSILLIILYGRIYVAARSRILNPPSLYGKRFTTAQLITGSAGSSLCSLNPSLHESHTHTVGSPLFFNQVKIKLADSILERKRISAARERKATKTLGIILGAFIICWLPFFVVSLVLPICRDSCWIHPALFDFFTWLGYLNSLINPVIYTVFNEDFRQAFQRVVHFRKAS
Method: (§2) For receptor binding assays, stably expressing 5-HT1a, 1b, 1d and 2c receptors cells (HEK-293, rat cerebral cortex, CHO and HEK-293, respectively) were incubated with 0.3 or 1 nM of their respective radioligand (^3H—OH-DPAT, ^125I CYP, ^3H serotonin and ^3H-mesulergine) alone or in the presence of 1 nM to 10 μM of piromelatine. The bound radioligand was assessed. Non-specific binding was evaluated under the reaction contained with 8-OH-PTA, serotonin and RS-10221 (8-[5-(2,4-Dimethoxy-5-(4-trifluoromethylphenylsulphonamido)phenyl-5-oxopentyl]-1,3,8-triazaspiro[4.5]decane-2,4-dione hydrochloride).

5-HT-1b receptor = target: T2, 5-HT-1b receptor (Rattus norvegicus, UniProt P28564); experiment: 5-HT receptor radioligand binding assay, 5-HT-1b; details: rat cerebral cortex, 125I CYP, read-out: IC50 (concentration causing 50% inhibition of binding)
T2 construct: stably expressing 5-HT1a, 1b, 1d and 2c receptors cells (HEK-293, rat cerebral cortex, CHO and HEK-293, respectively); from tissue; host or cells: rat cerebral cortex
T2 sequence (P28564 whole entry): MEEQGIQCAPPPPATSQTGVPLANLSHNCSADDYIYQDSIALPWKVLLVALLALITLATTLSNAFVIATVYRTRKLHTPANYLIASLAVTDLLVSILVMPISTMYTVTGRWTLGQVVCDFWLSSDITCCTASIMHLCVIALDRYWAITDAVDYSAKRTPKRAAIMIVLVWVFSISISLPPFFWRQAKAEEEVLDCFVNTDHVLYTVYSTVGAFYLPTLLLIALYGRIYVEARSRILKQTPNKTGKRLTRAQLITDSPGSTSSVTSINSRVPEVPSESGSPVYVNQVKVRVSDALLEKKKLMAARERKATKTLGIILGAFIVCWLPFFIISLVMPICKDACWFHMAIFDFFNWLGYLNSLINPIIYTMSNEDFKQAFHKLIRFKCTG
Method: as §2

5-HT-2c receptor = target: T3, 5-HT-2c receptor (Homo sapiens, UniProt P28335); experiment: 5-HT receptor radioligand binding assay, 5-HT-2c; details: HEK-293 cells, 3H-mesulergine, read-out: IC50 (concentration causing 50% inhibition of binding)
T3 construct: expressed in transfected cells; host or cells: HEK-293
T3 sequence (P28335 33-458): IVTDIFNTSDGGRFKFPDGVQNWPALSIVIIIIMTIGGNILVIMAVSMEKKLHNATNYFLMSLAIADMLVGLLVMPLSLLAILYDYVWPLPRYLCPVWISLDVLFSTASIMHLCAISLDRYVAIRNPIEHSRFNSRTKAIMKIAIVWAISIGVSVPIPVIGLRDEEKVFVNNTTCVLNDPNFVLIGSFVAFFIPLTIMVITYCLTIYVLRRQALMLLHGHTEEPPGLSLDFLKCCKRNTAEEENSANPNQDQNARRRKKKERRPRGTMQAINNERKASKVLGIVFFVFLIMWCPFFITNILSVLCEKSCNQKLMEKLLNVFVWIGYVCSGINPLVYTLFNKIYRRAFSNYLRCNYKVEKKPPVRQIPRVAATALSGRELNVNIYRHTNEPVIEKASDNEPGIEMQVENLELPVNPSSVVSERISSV
Method: as §2

5-HT-6 receptor = 5-HT-6 receptor (Homo sapiens, UniProt P50406); experiment: 5-HT receptor binding, 5-HT-6; details: read-out: IC50 (concentration causing 50% inhibition of binding)
5-HT-6 receptor, sequence (P50406 whole entry): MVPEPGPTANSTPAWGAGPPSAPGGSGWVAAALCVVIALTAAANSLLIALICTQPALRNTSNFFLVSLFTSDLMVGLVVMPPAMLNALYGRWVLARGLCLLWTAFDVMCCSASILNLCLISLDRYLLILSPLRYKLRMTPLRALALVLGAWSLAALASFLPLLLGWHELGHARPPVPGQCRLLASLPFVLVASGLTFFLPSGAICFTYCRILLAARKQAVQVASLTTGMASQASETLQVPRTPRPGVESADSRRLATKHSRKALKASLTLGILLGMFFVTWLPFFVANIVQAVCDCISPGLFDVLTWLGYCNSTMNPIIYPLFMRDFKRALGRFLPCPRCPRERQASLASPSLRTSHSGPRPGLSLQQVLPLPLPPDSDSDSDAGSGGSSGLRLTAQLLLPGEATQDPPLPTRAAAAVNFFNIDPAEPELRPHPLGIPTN

5-HT1d = 5-HT1d (Homo sapiens, UniProt P28221); experiment: Functional assay, 5-HT1d; assay type: cell-based
5-HT1d, sequence (P28221 whole entry, species assumed): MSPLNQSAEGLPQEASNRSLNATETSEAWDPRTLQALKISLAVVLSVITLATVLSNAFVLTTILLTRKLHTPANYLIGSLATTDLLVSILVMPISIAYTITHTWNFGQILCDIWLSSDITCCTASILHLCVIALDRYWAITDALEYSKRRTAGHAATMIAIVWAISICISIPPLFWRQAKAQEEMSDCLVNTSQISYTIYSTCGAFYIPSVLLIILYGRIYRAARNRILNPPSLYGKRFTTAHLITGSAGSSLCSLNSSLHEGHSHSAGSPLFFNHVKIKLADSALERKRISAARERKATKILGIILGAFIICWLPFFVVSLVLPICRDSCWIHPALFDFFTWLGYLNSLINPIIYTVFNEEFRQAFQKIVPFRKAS
Text: [Worded in the source for another target; this target is reported under the same test.] as §1

[1] = tested on: patients with early symptomatic Alzheimer's disease; experiment: Randomized, placebo controlled study of piromelatine in patients with early symptomatic Alzheimer's disease (cNTB, ADAS-Cog14, NPI, PSQI), analysed by 2:107,510,000-107,540,000 locus polymorphism carrier status; assay type: in vivo, human; set-up: key to Improvement, cNTB / Improvement, PSQI: ns = non-significant effect; deter = deterioration compared to placebo
Method: (§3) DNA extraction and SNP genotyping were performed as follows: For 107 patients, whole blood was collected at the time of enrollment, and genomic DNA was extracted from peripheral lymphocytes using a commercial kit. Variant genotyping of a combined Whole Genome and Whole Exome sequencing, was performed. The detection of variants associated with the response of the treatment was performed through a genome wide association study (GWAS) analysis (which is a known case-control paradigm). […] The general case-control allelic test was performed through a Cochran-Armitage trend test. […] The stratification was assessed by a complete-linkage hierarchical clustering using the pairwise population concordance as a constraint. The SNP calling was done on the aligned BAM files using DRAGEN: support.illumina.com/help/DRAGEN_Germline_OLH_1000000083701/Content/Source/Informatics/Apps/DRAGENGermlineSmallVarCaller_appDRAG.htm and filter SNPs using VQSR: gatk.broadinstitute.org/hc/en-us/articles/360035531612-Variant-Quality-Score-Recalibration-VQSR.
To further explore the relationship between these paradoxical responses and other variables in the study, changes in ADAS-Cog14 and relationships with the other variables for the intermediate dose (20 mg) of piromelatine were analyzed (Table 2). […] Moreover, in this trial, 39% of patients treated with the 20 mg piromelatine that were not carriers of the 2:107,510,000-107,540,000 locus polymorphism improved (decreased)>4 points in the ADAS-Cog14 and thus were considered “responders (beneficial response)” vs. only 8% of the patients treated with the 20 mg piromelatine that were carriers of the 2:107,510,000-107,540,000 locus polymorphism (Table 2).
To further explore the relationship between these paradoxical responses and other variables in the study, changes in cNTB, ADAS-Cog14 and PSQI for the low dose (5 mg) of piromelatine were analyzed (Table 3). […] However, only carriers of a 2:107,510,000-107,540,000 locus polymorphism improved on the computerized Neuropsychological Test Battery (cNTB) upon treatment with the 5 mg piromelatine dose and the main performance domains being the episodic memory domain composite score and attention domain composite score.

5-HT-4 receptor = 5-HT-4 receptor (Homo sapiens, UniProt Q13639); experiment: 5-HT receptor binding, 5-HT-4; details: read-out: IC50 (concentration causing 50% inhibition of binding)
5-HT-4 receptor, sequence (Q13639 whole entry): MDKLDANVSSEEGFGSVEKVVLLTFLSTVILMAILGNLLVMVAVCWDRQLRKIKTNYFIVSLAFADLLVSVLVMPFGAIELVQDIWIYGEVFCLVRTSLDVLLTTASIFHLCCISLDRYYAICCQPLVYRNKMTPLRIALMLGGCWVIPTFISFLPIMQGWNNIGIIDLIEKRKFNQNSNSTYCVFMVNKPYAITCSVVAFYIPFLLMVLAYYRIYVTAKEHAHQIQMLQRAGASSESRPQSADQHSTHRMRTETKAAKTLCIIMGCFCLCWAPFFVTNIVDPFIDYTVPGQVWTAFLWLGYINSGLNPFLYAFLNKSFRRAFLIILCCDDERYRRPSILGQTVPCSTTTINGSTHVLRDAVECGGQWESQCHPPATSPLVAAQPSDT

[2] = tested on: patients with early symptomatic Alzheimer's disease; experiment: Randomized, placebo controlled study of piromelatine in patients with early symptomatic Alzheimer's disease (cNTB, ADAS-Cog14, NPI, PSQI), analysed by 2:107,510,000-107,540,000 locus polymorphism carrier status; assay type: in vivo, human; set-up: key: ns = non-significant effect; deter = deterioration; details: carriers (N = 12); 20 mg daily for 26 weeks
Method: as §3, with “The SNP calling was done on the aligned BAM files using DRAGEN: support.illumina.com/help/DRAGEN_Germline_OLH_1000000083701/Content/Source/Informatics/Apps/DRAGENGermlineSmallVarCaller_appDRAG.htm and filter SNPs using VQSR: gatk.broadinstitute.org/hc/en-us/articles/360035531612-Variant-Quality-Score-Recalibration-VQSR.” left out
(§4) To further explore the relationship between these paradoxical responses and other variables in the study, changes in ADAS-Cog14 and relationships with the other variables for the intermediate dose (20 mg) of piromelatine were analyzed (Table 2). […]
(§5) To further explore the relationship between these paradoxical responses and other variables in the study, changes in cNTB, ADAS-Cog14 and PSQI for the low dose (5 mg) of piromelatine were analyzed (Table 3). […]

[3] = tested on: 60 different ion channels and receptors of different neurotransmitters and hormones; experiment: Full profile of binding to an additional 60 ion channels and receptors; details: 10 μM of piromelatine; none of the 60 assays
Method: A full profile of binding parameters to an additional 60 different ion channels and receptors of different neurotransmitters and hormones was performed (data not shown because none of the 60 receptor assays yielded a significant (>50%) inhibition by 10 μM of piromelatine).

5HT1a [4] = target: T4, 5HT1a (Homo sapiens, UniProt P08908); experiment: 5-HT receptor radioligand binding assay, 5-HT-1a; set-up: expressed in transfected cells; host or cells: HEK-293; details: HEK-293 cells, 3H-OH-DPAT, read-out: IC50 (concentration causing 50% inhibition of binding)
T4 sequence (P08908 1-422): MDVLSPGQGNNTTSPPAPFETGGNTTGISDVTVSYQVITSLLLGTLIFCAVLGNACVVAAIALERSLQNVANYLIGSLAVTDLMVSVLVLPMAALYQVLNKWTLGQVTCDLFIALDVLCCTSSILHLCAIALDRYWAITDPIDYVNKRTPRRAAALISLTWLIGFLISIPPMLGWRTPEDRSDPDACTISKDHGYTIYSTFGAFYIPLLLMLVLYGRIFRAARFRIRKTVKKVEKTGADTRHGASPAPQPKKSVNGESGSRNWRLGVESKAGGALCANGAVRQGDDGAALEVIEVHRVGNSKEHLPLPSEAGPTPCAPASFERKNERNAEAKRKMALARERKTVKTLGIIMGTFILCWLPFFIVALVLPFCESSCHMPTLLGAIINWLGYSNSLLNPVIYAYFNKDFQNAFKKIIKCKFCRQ
Method: as §2

5HT1a [5] = target: T4, 5HT1a; experiment: Functional assay (HTRF, cAMP or IP1), 5HT1a; assay type: cell-based
Text: as §1

[6] = tested on: patients with early symptomatic Alzheimer's disease; experiment: Randomized, placebo controlled study of piromelatine in patients with early symptomatic Alzheimer's disease (cNTB, ADAS-Cog14, NPI, PSQI), analysed by 2:107,510,000-107,540,000 locus polymorphism carrier status; assay type: in vivo, human; set-up: key: ns = non-significant effect; deter = deterioration compared to placebo; details: locus polymorphism carriers; 5, 20 and 50 mg daily for 26 weeks; compared to placebo
Method: as §3, with “The SNP calling was done on the aligned BAM files using DRAGEN: support.illumina.com/help/DRAGEN_Germline_OLH_1000000083701/Content/Source/Informatics/Apps/DRAGENGermlineSmallVarCaller_appDRAG.htm and filter SNPs using VQSR: gatk.broadinstitute.org/hc/en-us/articles/360035531612-Variant-Quality-Score-Recalibration-VQSR.” left out
as §4, §5

[7] = carriers (N = 12), 20 mg daily for 26 weeks
[8] = carriers, 5 mg daily for 26 weeks
[9] = carriers, 5 mg daily for 26 weeks (N = 5)
[10] = locus polymorphism carriers, 5, 20 and 50 mg daily for 26 weeks, N = 19
[11] = locus polymorphism non-carriers, 5, 20 and 50 mg daily for 26 weeks, N = 59
[12] = locus polymorphism non-carriers, 5, 20 and 50 mg daily for 26 weeks, compared to placebo
[13] = non-carriers (N = 23), 20 mg daily for 26 weeks
[14] = non-carriers, 5 mg daily for 26 weeks
[15] = non-carriers, 5 mg daily for 26 weeks (N = 19)
[16] = whole study population n=352, 5, 20 and 50 mg daily for 6 months

5-HT-2a receptor, sequence (P28223 whole entry): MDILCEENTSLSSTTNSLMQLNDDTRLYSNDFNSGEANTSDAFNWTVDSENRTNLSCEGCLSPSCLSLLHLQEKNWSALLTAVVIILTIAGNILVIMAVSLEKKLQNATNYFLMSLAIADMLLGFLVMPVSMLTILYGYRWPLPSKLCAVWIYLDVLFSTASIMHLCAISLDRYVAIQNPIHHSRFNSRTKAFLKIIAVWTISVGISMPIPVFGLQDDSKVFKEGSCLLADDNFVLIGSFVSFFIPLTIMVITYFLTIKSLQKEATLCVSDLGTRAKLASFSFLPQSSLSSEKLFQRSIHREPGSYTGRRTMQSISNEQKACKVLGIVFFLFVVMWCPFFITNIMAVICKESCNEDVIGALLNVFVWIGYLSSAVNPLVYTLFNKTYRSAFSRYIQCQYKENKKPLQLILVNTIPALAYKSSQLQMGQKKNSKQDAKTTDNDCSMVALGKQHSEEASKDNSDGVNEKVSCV

COc1ccc2[nH]cc(CCNC(=O)c3cc(=O)cco3)c2c1 [piromelatine, N-(2-(5-methoxy-1H-indol-3-yl)ethyl)-4-oxo-4H-pyran-2-carboxamide]
IC50 (5-HT-2a receptor): > 10 µM
IC50 (5-HT-7 receptor): > 10 µM
agonist activity in the functional assay (5-HT1b): Low agonist activity
IC50 (5-HT-1d receptor): 0.46 µM
IC50 (5-HT-1b receptor): 8 µM
IC50 (5-HT-2c receptor): 2.8 µM
IC50 (5-HT-6 receptor): > 10 µM
agonist activity in the functional assay (5-HT1d): moderate agonist activity
ADAS-Cog14 % Responders (decrease ≥ 4) [1, 7]: 8%
ADAS-Cog14 Change from baseline [1, 7]: 3.58
Improvement, NPI [1, 7]: yes
Improvement, PSQI [1, 7]: ns
Improvement, cNTB [1, 7]: yes
NPI Change from baseline [1, 7]: −3.08
PSQI Change from baseline [1, 7]: −0.17
cNTB Change from baseline [1, 7]: 0.44
ADAS Cogl4, Cohen's d vs placebo > 0.2 [1, 8]: improvement
PSQI, Cohen's d vs placebo > 0.2 [1, 8]: no improvement
cNTB, Cohen's d vs placebo > 0.2 [1, 8]: improvement
ADAS Cogl4 Change from Baseline [1, 9]: −6.40
PSQI Change from baseline [1, 9]: −3.40
cNTB Change from baseline [1, 9]: 0.28
cNTB attention domain composite score ([1]; carriers, 20 mg dose): improved
cNTB episodic memory domain composite score ([1]; carriers, 20 mg dose): improved
ADAS-Cog14 Change from baseline [1, 10]: 0.63*
cNTB Change from baseline [1, 10]: 0.38*
Improvement, cNTB ([1]; locus polymorphism carriers, 5, 20 and 50 mg daily for 26 weeks, compared to placebo): yes
ADAS-Cog14 Change from baseline [1, 11]: −1.07*
cNTB Change from baseline [1, 11]: −0.04
Improvement, ADAS-Cog14 [1, 12]: yes
Improvement, cNTB [1, 12]: ns
ADAS-Cog14 % Responders (decrease ≥ 4) [1, 13]: 39%
ADAS-Cog14 Change from baseline [1, 13]: −2.91
Improvement, ADAS-Cog14 [1, 13]: yes
Improvement, NPI [1, 13]: yes
Improvement, PSQI [1, 13]: yes
Improvement, cNTB [1, 13]: ns
NPI Change from baseline [1, 13]: −2.70
PSQI Change from baseline [1, 13]: −2.13
cNTB Change from baseline [1, 13]: −0.06
ADAS Cogl4, Cohen's d vs placebo > 0.20 [1, 14]: no improvement
PSQI, Cohen's d vs placebo > 0.20 [1, 14]: improvement
cNTB, Cohen's d vs placebo > 0.20 [1, 14]: deterioration
ADAS Cogl4 Change from Baseline [1, 15]: 1.11
PSQI Change from baseline [1, 15]: −1.11
cNTB Change from baseline [1, 15]: −0.21
ADAS-Cog14, drug vs placebo [1, 16]: no statistically significant differences
global composite score of the cNTB, drug vs placebo [1, 16]: no statistically significant differences
IC50 (5-HT-4 receptor): > 10 µM
Improvement, ADAS-Cog14 [2]: deter
inhibition in the 60 receptor assays [3]: ≤ 50%
IC50 (5HT1a [4]): 0.6 µM
agonist activity in the functional assay (5HT1a [5]): moderate agonist activity
Improvement, ADAS-Cog14 [6]: deter
